# Test results from patent US20260008770A1, “CBL-B INHIBITORS AND METHODS OF USES THEREOF” (Insilico Medicine IP Limited, priority 2022, published 2026).
# Target: Cbl-b protein (CBL-B, GST-Tag) (Homo sapiens (Human), UniProt Q13191)
# Assay: HTRF based binding assay, affinity to Cbl-b protein
# Conditions: not given
# Cbl-b protein (CBL-B, GST-Tag), sequence (Q13191 whole entry): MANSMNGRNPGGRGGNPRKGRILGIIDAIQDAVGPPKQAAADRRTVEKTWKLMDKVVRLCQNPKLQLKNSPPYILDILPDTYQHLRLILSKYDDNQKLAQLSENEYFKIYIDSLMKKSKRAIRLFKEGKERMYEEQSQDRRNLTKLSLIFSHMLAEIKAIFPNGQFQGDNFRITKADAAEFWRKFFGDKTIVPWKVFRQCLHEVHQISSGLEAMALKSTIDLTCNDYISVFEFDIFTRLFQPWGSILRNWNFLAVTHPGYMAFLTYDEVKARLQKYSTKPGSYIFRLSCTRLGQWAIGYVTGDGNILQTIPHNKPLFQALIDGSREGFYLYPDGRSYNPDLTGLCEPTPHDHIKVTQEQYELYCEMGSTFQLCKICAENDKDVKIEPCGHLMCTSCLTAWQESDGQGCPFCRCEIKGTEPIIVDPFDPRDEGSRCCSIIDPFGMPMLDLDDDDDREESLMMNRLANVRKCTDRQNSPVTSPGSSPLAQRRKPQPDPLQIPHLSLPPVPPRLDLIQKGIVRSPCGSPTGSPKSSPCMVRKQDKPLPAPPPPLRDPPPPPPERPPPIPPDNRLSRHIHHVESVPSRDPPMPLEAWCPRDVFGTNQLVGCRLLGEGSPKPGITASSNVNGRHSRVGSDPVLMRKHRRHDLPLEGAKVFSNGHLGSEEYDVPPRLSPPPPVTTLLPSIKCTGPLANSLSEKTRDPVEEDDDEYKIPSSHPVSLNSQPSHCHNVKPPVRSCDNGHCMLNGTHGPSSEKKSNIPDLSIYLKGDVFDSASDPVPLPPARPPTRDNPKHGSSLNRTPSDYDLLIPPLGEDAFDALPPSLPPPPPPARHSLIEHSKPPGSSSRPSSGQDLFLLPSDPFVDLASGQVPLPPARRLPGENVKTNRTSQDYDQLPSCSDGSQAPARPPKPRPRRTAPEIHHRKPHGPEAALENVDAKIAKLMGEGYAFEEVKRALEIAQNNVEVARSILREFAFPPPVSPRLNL
row,SMILES,IC50 [nM]
1,C[C@H]1CCCN(Cc2cc(C(F)(F)F)c3cnn(-c4cccc(C5(Cc6nncn6C)COC5)c4)c(=O)c3c2)C1 [Example 13],500 to 1000
2,C[C@H]1CCCN(Cc2cc(C(F)(F)F)c3ncn(-c4cc([C@]5(c6nncn6C6CCC6)C[C@@H](C)C5)ccn4)c(=O)c3c2)C1 [Example 110],50 to 500
3,C[C@H]1CCCN(Cc2cc(C(F)(F)F)c3ncn(-c4cc(C5(Cc6nncn6C)COC5)ccn4)c(=O)c3c2)C1 [Example 35],50 to 500
4,CC1CC(c2cc(CO)cc(-n3cc4c(C(F)(F)F)cc(CN5CCC[C@H](C)C5)cc4n3)c2)(c2nncn2C)C1 (stereo partly drawn) [Example 60],50 to 500
5,COCC1CC(c2cccc(-n3cnc4c(C(F)(F)F)cc(CN5CCC[C@H](C)C5)cc4c3=O)c2)(c2nncn2C)C1 (stereo partly drawn) [Example 76],50 to 500
6,C#Cc1cc([C@]2(c3nncn3C)C[C@@H](C)C2)cc(-n2cnc3ccc(CN4CCC[C@H](C)C4)cc3c2=O)n1 [Example 97],50 to 500
7,CC1CC(c2cc(F)nc(-n3cnc4c(C(F)(F)F)cc(CN5CCC[C@H](C)C5)cc4c3=O)c2)(c2nncn2C)C1 (stereo partly drawn) [Example 44],20 to 50
8,C[C@H]1CCCN(Cc2cc(C(=O)Nc3cccc([C@H](c4nncn4C)C4COC4)c3)cc(C(F)(F)F)c2)C1 [Example 27],50 to 500
9,CC1CC(c2ccnc(-n3cnc4c(C(F)(F)F)c(CN5CCC[C@H](C)C5)[nH]c4c3=O)c2)(c2nncn2C)C1 (stereo partly drawn) [Example 46],50 to 500
10,CC1CC(c2cccc(-n3[nH]c(=O)c4c(C(F)(F)F)cc(CN5CCC[C@H](C)C5)cc4c3=O)c2)(c2nncn2C)C1 (stereo partly drawn) [Example 81],50 to 500
11,CC1CC(c2cccc(-c3nc4cc(CN5CCC[C@H](C)C5)cc(C(F)(F)F)c4n3C)c2)(c2nncn2C)C1 (stereo partly drawn) [Example 8],50 to 500
12,C#CC1CCCN(Cc2cc(C(F)(F)F)c3cnn(-c4cccc(C5(c6nncn6C)CC(C)C5)c4)c(=O)c3c2)C1 (stereo not drawn) [Example 20],500 to 1000
13,C[C@H]1CCCN(Cc2cc(C(F)(F)F)c3cnn(-c4cccc([C@H](c5nncn5C)C5CCC5)c4)c(=O)c3c2)C1 [Example 19],50 to 500
14,[2H]C([2H])([2H])n1cnnc1C1(c2ccnc(-n3cnc4c(C(F)(F)F)cc(CN5CCC[C@H](C)C5)cc4c3=O)c2)CC(C)C1 (stereo partly drawn) [Example 121],< 20
15,C[C@H]1CCCN(Cc2cc3c(=O)n(-c4cccc([C@]5(c6nncn6C)C[C@@H](C)C5)c4)cnc3c(C(F)(F)F)n2)C1 [Example 62],20 to 50
16,Cn1cnnc1[C@]1(c2cccc(-n3cc4c(C(F)(F)F)cc(CN5CCOC6(CCC6)C5)cc4n3)c2)C[C@H](C)C1 [Example 40],50 to 500
17,CC1CC(c2cccc(-n3cc4c(C(F)(F)F)cc(CN5CCC[C@@](C)(O)C5)cc4n3)c2)(c2nncn2C)C1 (stereo partly drawn) [Example 89],50 to 500

row,SMILES,IC50 [nM]
1,CC1CC(c2cccc(NC(=O)c3cc(CN4CCC[C@H](C)C4)cc4c3OC(F)(F)O4)c2)(c2nncn2C)C1 (stereo partly drawn) [Example 25],20 to 50
2,C[C@H]1CCCN(Cc2cc(C(F)(F)F)c3ncn(-c4cccc(C5(c6nncn6C)CC(=O)C5)c4)c(=O)c3c2)C1 [Example 67],50 to 500
3,C#CCC1CC(c2cccc(-n3cc4c(C(F)(F)F)cc(CN5CCC[C@H](C)C5)cc4n3)c2)(c2nncn2C)C1 (stereo partly drawn) [Example 66],20 to 50
4,"CC1CC(c2cccc(-c3n[nH]c4c(CN5CCC[C@H](C)C5)cc(C(F)(F)F)nc34)c2)(c2nncn2C)C1 (stereo partly drawn) [Example 5, (S)-3-(3-(3-methyl-1-(4-methyl-4H-1,2,4-triazol-3-yl)cyclobutyl)phenyl)-7-((3-methylpiperidin-1-yl)methyl)-5-(trifluoromethyl)-1H-pyrazolo[4,3-b]pyridine]",50 to 500
5,CC1CN(Cc2cc(C(F)(F)F)c3ncn(-c4cc([C@]5(c6nncn6C)C[C@@H](C)C5)ccn4)c(=O)c3c2)CCC1(F)F (stereo partly drawn) [Example 34],20 to 50
6,CC1CC(c2cc(C#N)cc(-n3cc4c(C(F)(F)F)cc(CN5CCC[C@H](C)C5)cc4n3)c2)(c2nncn2C)C1 (stereo partly drawn) [Example 53],50 to 500
7,CC1CC(c2cccc(-n3ncc4c(C(F)(F)F)cc(CN5CCC(F)(F)[C@H](C)C5)cc4c3=O)c2)(c2nncn2C)C1 (stereo partly drawn) [Example 14],50 to 500
8,C[C@H]1CCCN(Cc2cc(C(F)(F)F)c3cn(-c4cc([C@]5(c6nncn6C)C[C@H](C)C5)ccn4)nc3c2)C1 [Example 71],50 to 500
9,C[C@H]1CCCN(Cc2cc(C(=O)Nc3cccc(C(c4nncn4C)C4CCC4)c3)cc(C(F)(F)F)c2)C1 (stereo partly drawn) [Example 31],50 to 500
10,Cn1cnnc1[C@]1(c2ccnc(-n3cnc4c(C(F)(F)F)cc(CN5CCC6(CCO6)C5)cc4c3=O)c2)C[C@H](C)C1 (stereo partly drawn) [Example 120],500 to 1000
11,CC1CC(c2cc(Cl)nc(-n3cnc4c(C(F)(F)F)cc(CN5CCC[C@H](C)C5)cc4c3=O)c2)(c2nncn2C)C1 (stereo partly drawn) [Example 41],20 to 50
12,C[C@H]1CCCN(Cc2cc(C(F)(F)F)c3cn(-c4cccc(C5(c6nncn6C)CC(F)(F)C5)c4)nc3c2)C1 [Example 87],20 to 50
13,Cn1cnnc1[C@]1(c2ccnc(-n3ncc4c(C(F)(F)F)cc(CN5CCOC6(CCC6)C5)cc4c3=O)c2)C[C@H](C)C1 [Example 39],500 to 1000
14,CNC(=O)c1cc(-n2cc3c(C(F)(F)F)cc(CN4CCC[C@H](C)C4)cc3n2)cc(C2(c3nncn3C)CC(C)C2)c1 (stereo partly drawn) [Example 43],50 to 500
15,CC1CC(c2cccc(-n3cc4c(C(F)(F)F)cc(CN5C[C@@H](C)C[C@H](C)C5)cc4n3)c2)(c2nncn2C)C1 (stereo partly drawn) [Example 86],50 to 500
16,CC1CC(c2cccc(-n3ncc4c(C(F)(F)F)cc(CN5CCC[C@H](C)C5)cc4c3=O)c2)(c2nncn2C)C1 (stereo partly drawn) [Example 6],20 to 50
17,COCC1CC(c2cccc(-n3cc4c(C(F)(F)F)cc(CN5CCC[C@H](C)C5)cc4n3)c2)(c2nncn2C)C1 (stereo partly drawn) [Example 33],20 to 50

# Same assay, conditions: HTRF binding, CBL-B (GST-Tag), fluorescence labeled Cbl-b binding probe
row,SMILES,IC50 [nM]
1,C#CC1CC(c2ccnc(-n3cnc4c(C(F)(F)F)cc(CN5CCC[C@H](C)C5)cc4c3=O)c2)(c2nncn2C)C1 (stereo partly drawn) [Example 101],< 20
2,C[C@H]1CCCN(Cc2cc3c(=O)n(-c4cc([C@]5(c6nncn6C)C[C@@H](C)C5)cc(OCF)n4)cnc3cc2F)C1 [Example 100],< 20
3,C[C@H]1CCCN(Cc2cc(C(=O)Nc3cccc([C@]4(c5nncn5C)C[C@H](C)C4)c3)c(F)c(C(F)(F)F)c2)C1 [Example 29],< 20
4,CC1CC(c2cccc(-n3ncc4c(C(F)(F)F)cc(CN5CCC(F)(F)[C@@H](C)C5)cc4c3=O)c2)(c2nncn2C)C1 (stereo partly drawn) [Example 15],> 1000
5,"CC1CC(c2cccc(-c3nc4cc(CN5CCC[C@H](C)C5)cc(C(F)(F)F)c4s3)c2)(c2nncn2C)C1 (stereo partly drawn) [Example 4, (S)-2-(3-(3-methyl-1-(4-methyl-4H-1,2,4-triazol-3-yl)cyclobutyl)phenyl)-5-((3-methylpiperidin-1-yl)methyl)-7-(trifluoromethyl)benzo[d]thiazole]",< 20
6,CC1CC(c2cc(OCF)nc(-n3ncc4c(C(F)(F)F)cc(CN5CCC[C@H](C)C5)cc4c3=O)c2)(c2nncn2C)C1 (stereo partly drawn) [Example 38],< 20
7,C[C@@H]1CN(Cc2cc(C(F)(F)F)c3ncn(-c4cc([C@]5(c6nncn6C)C[C@@H](C)C5)cc(OCF)n4)c(=O)c3c2)CCC1F (stereo partly drawn) [Example 106],< 20
8,CC1CC(c2cc(OC(F)F)nc(-n3cnc4c(C(F)(F)F)cc(CN5CCC[C@H](C)C5)cc4c3=O)c2)(c2nncn2C)C1 (stereo partly drawn) [Example 117],< 20
9,C[C@H]1CCCN(Cc2cc(C(F)(F)F)c3cn(-c4cccc(C5(Cc6nncn6C)COC5)c4)nc3c2)C1 [Example 88],< 20
10,CC1CC(c2cc(C(N)=O)cc(-n3cc4c(C(F)(F)F)cc(CN5CCC[C@H](C)C5)cc4n3)c2)(c2nncn2C)C1 (stereo partly drawn) [Example 52],< 20
11,CC1CC(c2cccc(-n3ncc4c(C(F)(F)F)cc(CN5CCO[C@H](C)C5)cc4c3=O)c2)(c2nncn2C)C1 (stereo partly drawn) [Example 10],> 1000
12,C#C[C@H]1CCCN(Cc2cc(C(F)(F)F)c3cn(-c4cccc(C5(Cc6nncn6C)COC5)c4)nc3c2)C1 [Example 69],< 20
13,C[C@@H]1CN(Cc2ccc3ncn(-c4cc([C@]5(c6nncn6C)C[C@@H](C)C5)cc(OCF)n4)c(=O)c3c2)CCC1F (stereo partly drawn) [Example 123],< 20
14,C=C(F)c1cc([C@]2(c3nncn3C)C[C@@H](C)C2)cc(-n2cnc3c(C(F)(F)F)cc(CN4CCC[C@H](C)C4)cc3c2=O)n1 [Example 107],< 20
15,CC1CC(c2cncc(-n3ncc4c(C(F)(F)F)cc(CN5CCC[C@H](C)C5)cc4c3=O)c2)(c2nncn2C)C1 (stereo partly drawn) [Example 77],< 20
16,C#C[C@H]1CCCN(Cc2cc(C(F)(F)F)c3cn(-c4cccc([C@]5(c6nncn6C)C[C@@H](C)C5)c4)nc3c2)C1 [Example 56],< 20
17,C[C@H]1CCCN(Cc2ccc3ncn(-c4cc([C@]5(c6nncn6C(F)F)C[C@@H](C)C5)cc(OCF)n4)c(=O)c3c2)C1 [Example 124],< 20
18,C[C@H]1CCCN(Cc2cc(C(F)(F)F)c3ncn(-c4cc([C@]5(c6nncn6C)C[C@@H](C)C5)ccn4)c(=O)c3c2)C1 [Example 78],< 20
19,C[C@H]1CCCN(Cc2ccc3ncn(-c4cc([C@]5(c6nncn6C)C[C@@H](C)C5)cc(OCF)n4)c(=O)c3c2)C1 [Example 112],< 20
20,Cn1cnnc1C(F)C1(c2cccc(-n3cc4c(C(F)(F)F)cc(CN5CCC[C@H](C6CC6)C5)cc4n3)c2)COC1 (stereo partly drawn) [Example 50],< 20
21,C[C@H]1CCCN(Cc2cc(C(F)(F)F)c3sc(-c4cccc(C5(Cc6nncn6C)COC5)c4)nc3c2)C1 [Example 16],< 20
22,C[C@H]1CCCN(Cc2ccc3ncn(-c4cc([C@]5(c6nncn6C)C[C@@H](C)C5)cc(C5CC5)n4)c(=O)c3c2)C1 [Example 96],< 20
23,C[C@H]1CCCN(Cc2cc(C(F)(F)F)c3cn(-c4cccc(C5(C(F)c6nncn6C)COC5)c4)nc3c2)C1 (stereo partly drawn) [Example 57],< 20
24,Cn1cnnc1[C@]1(c2cc(OCF)nc(-n3cnc4c(C(F)(F)F)cc(CN5CCC[C@H](F)C5)cc4c3=O)c2)C[C@H](C)C1 [Example 102],< 20
25,Cn1cnnc1CC1(c2cccc(-n3cc4c(C(F)(F)F)cc(CN5CCC[C@H](C6CC6)C5)cc4n3)c2)COC1 [Example 64],< 20
26,CC1CC(c2cccc(NC(=O)c3cc(CN4CCC[C@H](C)C4)cc4c3OCCC4(F)F)c2)(c2nncn2C)C1 (stereo partly drawn) [Example 24],< 20
